Experimental data as given in patent US20130196980A1, “[…], […] AND THERAPEUTIC AGENT FOR FIBROMYALGIA” (AXIS INC., priority 2010, published 2013).

Test system: anti-VGKC complex antibody positive patient with fibromyalgia
Assay: Pain-relieving experiment by an anticonvulsant agent (patient pain VAS)
Assay type: in vivo, human
Details: patient B; clonazepam 1.5 mg orally; non-depression type fibromyalgia, anti-VGKC complex antibody more than 100 pM
Excerpt: Pain-relieving experiments by an anticonvulsant agent for each anti-VGKC complex antibody positive patient with fibromyalgia
It is considered that the pain can be relieved by an anticonvulsant agent for an anti-VGKC complex antibody positive patient with fibromyalgia. Thus, for 3 patients (to whom a level of anti-VGKC complex antibody of more than 100 pM was detected) among 4 anti-VGKC complex antibody positive patients with fibromyalgia in Example 1, a pain-relieving experiment by an anticonvulsant agent for an anti-VGKC complex antibody positive patient with fibromyalgia was conducted. These patients were patients with fibromyalgia of non-depression type.
To patient A, gabapentine 900 mg and clonazepam 0.5 mg were orally administered. As a result, the value of patient pain VAS was reduced to 40 based on 100 before administration.
To patient B, clonazepam 1.5 mg was orally administered. As a result, the value of patient pain VAS was reduced to 30 based on 100 before administration.
To patient C, gabapentine 1600 mg and clonazepam 1.0 mg were orally administered. As a result, the value of patient pain VAS was reduced to 20 based on 100 before administration.

With `O=C1CN=C(c2ccccc2Cl)c2cc([N+](=O)[O-])ccc2N1` [clonazepam] the “value of patient pain VAS after administration, based on 100 before administration” value was 30.
